*1 amine or outer side, *2 acyl side, *3 side chain or, on linkers, in order; H or OH if unused. Where a SMILES comes first, the peptide text is derived from it. [ ]: non-standard residue; d: D form. The star is where a group is joined. NHBn(4-(4-Me-thiazol-5-yl)) = Cc1ncsc1-c1ccc(CN*)cc1; NHCH2(1,3-C6H4)CH2CO = O=C(Cc1cccc(CN[*:1])c1)[*:2]; F2Pmp = N[C@@H](Cc1ccc(C(F)(F)P(=O)(O)O)cc1)C(=O)O; Phenylacetyl(4-OH,3-OMe) = COc1cc(CC(=O)*)ccc1O; Benzoyl(3-Br,4-Me) = Cc1ccc(C(=O)*)cc1Br; X1 = Cc1ncsc1-c1ccc([C@H](C)N*)cc1; cisHyp = O=C(O)[C@@H]1C[C@H](O)CN1; Hyp = O=C(O)[C@@H]1C[C@@H](O)CN1; Tle = CC(C)(C)[C@H](N)C(=O)O; Cbz = O=C(OCc1ccccc1)*; Ahx = NCCCCCC(=O)O
What was measured:
[1] = test system: compound 47-mediated PTP1B and TC-PTP degradation; experiment: Degradation mechanism verification in HEK293 cells (pretreatment with pathway blockers); type: cell-based; conditions: pretreatment then 100 nM compound 47 for 4 hours
Protocol: Cells were pre-treated with indicated concentration of MLN4924 (prevents ubiquitination), MG132 (blocks proteasome activity), lenalidomide (prevents CRBN binding) or (S,R,S)-AHPC-Me (prevents VHL binding) followed by 4 hours of treatment with compound 47 at 100 nM showing compound 47-mediated PTP1B/TC-PTP degradation depends on the ubiquitination-proteasome pathway. No degradation was observed when cells were treated with 100 nM cis-compound 47 (inactivated degrader) for 4 hours.
PROTAC-mediated protein degradation requires the obligatory formation of afunctional ternary complex of target protein-PROTAC-E3 ligase to enable target protein ubiquitination by the E3 ligase, followed by proteasomal degradation. The VHL E3 ligase dependency for compound 47 induced PTP1B and TC-PTP degradation was confirmed by preparing cis-isomer of compound 47 (cis-47) in which the VHL E3 ligand was replaced with (S,S,S)-AHPC-Me, an epimer of (S,R,S)-AHPC-Me with diminished affinity for VHL. […] Moreover, the addition of the VHL ligand (S,R,S)-AHPC-Me reduced the compound 47-mediated degradation of the two proteins (FIG. 6A). In contrast, pretreatment of the cell with lenalidomide, a ligand for cereblon (another E3 ligase commonly employed for PROTAC development), had no effect on compound 47-mediated PTP1B and TC-PTP degradation (FIG. 6A). […] The compound 47 mediated PTP1B and TC-PTP degradation and proteasome dependency were also verified by immunofluorescent imaging (FIGS. 6B and 6C).

pSTAT1 = experiment: STAT1 phosphorylation in IFN-γ stimulated HEK293 cells (western blot); type: cell-based; conditions: Homo sapiens; HEK293 cells, 16 hours, 20 ng/ml IFN-γ; read-out: EC50 of pSTAT1 activation
Protocol: Wild-type HEK293 cells were treated with compound 47 or ABBV-CLS-484 for 16 hours, and stimulated with 20 ng/ml IFN-γ to induce JAK-STAT signaling pathway activation.
Abbvie and Calico developed a potent PTP1B/TC-PTP inhibitor ABBV-CLS-484 (disclosed in International PCT application WO2019246513), and it is currently being evaluated as a treatment for locally advanced or metastatic tumors (NCT04777994).

PTP1B [2] = target: T1, PTP1B (Homo sapiens, UniProt P18031); experiment: PTP activity assay with pNPP substrate (IC50, Ki, mode of inhibition); type: biochemical; conditions: pNPP 2 mM, pH 7.0, 25° C.; read-out: IC50, nM PTP1B
T1 sequence (P18031 1-435): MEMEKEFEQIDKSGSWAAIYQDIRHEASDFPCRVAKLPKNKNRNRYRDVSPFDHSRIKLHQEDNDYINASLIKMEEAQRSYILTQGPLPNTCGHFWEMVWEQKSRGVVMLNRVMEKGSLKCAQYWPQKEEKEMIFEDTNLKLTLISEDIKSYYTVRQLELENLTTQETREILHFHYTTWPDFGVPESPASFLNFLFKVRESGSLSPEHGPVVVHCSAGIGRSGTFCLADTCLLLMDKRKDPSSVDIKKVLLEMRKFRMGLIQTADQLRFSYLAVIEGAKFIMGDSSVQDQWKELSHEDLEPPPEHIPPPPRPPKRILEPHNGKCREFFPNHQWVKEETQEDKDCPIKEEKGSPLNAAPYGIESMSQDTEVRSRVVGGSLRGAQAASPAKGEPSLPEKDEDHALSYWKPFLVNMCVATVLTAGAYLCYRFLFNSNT
How it was run: (§1)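 Hydrolysis of pNPP measured spectrophotometrically in pH 7.0 DMG buffer (EDTA, NaCl, DTT, BSA) at 25 °C, 0.4 nM enzyme. IC50 at 2 mM pNPP (Km) over an inhibitor titration; mode of inhibition and Ki from rates across varied pNPP and inhibitor levels, fitted to enzyme kinetic models.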

TC-PTP [3] = target: T2, TC-PTP (Homo sapiens, UniProt P17706); experiment: as above; type: biochemical; conditions: pNPP 2 mM, pH 7.0, 25° C.; read-out: IC50, nM TC-PTP
T2 sequence (P17706 1-415): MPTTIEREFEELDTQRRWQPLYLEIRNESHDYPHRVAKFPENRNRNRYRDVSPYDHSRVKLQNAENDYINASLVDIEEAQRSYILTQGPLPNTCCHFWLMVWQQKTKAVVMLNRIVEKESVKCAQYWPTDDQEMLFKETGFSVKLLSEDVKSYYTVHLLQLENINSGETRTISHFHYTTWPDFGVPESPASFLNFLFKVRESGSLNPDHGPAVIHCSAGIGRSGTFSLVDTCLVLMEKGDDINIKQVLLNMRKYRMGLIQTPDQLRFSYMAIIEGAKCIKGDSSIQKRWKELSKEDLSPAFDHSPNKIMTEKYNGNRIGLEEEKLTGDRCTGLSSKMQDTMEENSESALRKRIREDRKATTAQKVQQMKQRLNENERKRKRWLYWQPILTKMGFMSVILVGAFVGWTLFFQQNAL
How it was run: as §1

PTP1B [4] = target: T1, PTP1B; experiment: Degradation assay in HEK293 cells (immunoblotting); type: cell-based; set-up: Degradation assay was conducted in HEK293 cells with 1 μM degrader and 24 hours incubation; endogenous in cells; host or cells: HEK293; conditions: 100 nM, 4 hours
TC-PTP [5] = target: T2, TC-PTP; experiment: Degradation assay in HEK293 cells (immunoblotting); type: cell-based; set-up: Degradation assay was conducted in HEK293 cells with 1 μM degrader and 24 hours incubation; endogenous in cells; host or cells: HEK293; conditions: 100 nM, 4 hours
PTP1B [6] = target: T1, PTP1B; experiment: Degradation assay in HEK293 cells (immunoblotting); type: cell-based; set-up: Degradation assay was conducted in HEK293 cells with 1 μM degrader and 24 hours incubation; endogenous in cells; host or cells: HEK293; conditions: 1 μM degrader, 24 hours
Protocol: (§2) HEK293. MIAPaCa-2, HepG2, U2OS, H116, MEF, B16F10, and MC38 cells, were grown in DMEM, while Jurkat and H358 cells were grown in RPMI 1640 supplemented with 10% fetal bovine serum, penicillin (50 units/mL), and streptomycin (50 μg/mL) in a 37° C. incubator containing 5% CO2. 20 ng/ml human (Biolegend #713906) or mouse (Biolegend #714006) Interferon-γ were used for JAK/STAT pathway stimulation.
(§3) Tissues or cultured cells were lysed with ice-cold lysis buffer (50 mM Tris (pH 8.0, 150 mM NaCl, 10% Glycerol, 1% Triton-X-100) supplied with phosphatase inhibitor (Bimake) and protease inhibitor mixture (Roche Applied Science). Equal amounts of protein were resolved by SDS-PAGE, transferred to nitrocellulose membrane, and subjected to immunoblotting. Antibodies used in this study include anti-following proteins: pSTAT1^Tyr701 (Cell Signaling Technology #9167, 1:3000), GAPDH (Cell Signaling Technology #97166, 1:5000), pJAK1^Tyr1034/1035 (Cell Signaling Technology #74129, 1:1000), pJAK2^Tyr1007/1008 (Cell Signaling Technology #3776, 1:1000), TC-PTP (Abcam #ab180764, 1:3000). PTP1B (Abcam #ab244207, 1:1500).
(§4) Degradation assay was conducted in HEK293 cells with 1 μM degrader and 24 hours incubation.
(§5) The degradation assay was conducted in HEK293 cells with 0.2 μM degrader and 16 hours incubation.

TC-PTP [7] = target: T2, TC-PTP; experiment: Degradation assay in HEK293 cells (immunoblotting); type: cell-based; set-up: Degradation assay was conducted in HEK293 cells with 1 μM degrader and 24 hours incubation; endogenous in cells; host or cells: HEK293; conditions: 1 μM degrader, 24 hours, read-out: % Protein Degradation TC-PTP
Protocol: as §2, §3, §4, §5

PTP1B [8] = target: T1, PTP1B; experiment: Degradation assay in HEK293 cells (immunoblotting); type: cell-based; set-up: endogenous in cells; host or cells: HEK293; conditions: 0.2 μM degrader, 16 hours
Protocol: as §2, §3, §4, §5

TC-PTP [9] = target: T2, TC-PTP; experiment: Degradation assay in HEK293 cells (immunoblotting); type: cell-based; set-up: endogenous in cells; host or cells: HEK293; conditions: 0.2 μM degrader, 16 hours, read-out: % Protein Degradation TC-PTP
Protocol: as §2, §3, §4, §5

With CC(C)C[C@@H](C=O)NC(=O)[C@H](CC(C)C)NC(=O)[C@H](CC(C)C)NC(=O)OCc1ccccc1 [MG-132] (Cbz-Leu-Leu-Leu-aldehyde) as the molecule, how does the “effect of pretreatment on compound 47-mediated PTP1B and TC-PTP degradation” value (“effect of pretreatment” for short) [1] read?
The value was “markedly reduced”.

NS(=O)(=O)OC[C@@H]1C[C@@H](n2ccc3c(N[C@H]4CCc5ccccc54)ncnc32)C[C@@H]1O [MLN-4924] was tested. Which “effect of pretreatment” value [1] did it give?
The value was “markedly reduced”.

How did the EC50 (pSTAT1) turn out when CC(C)CCN[C@@H]1CCc2cc(O)c(N3CC(=O)NS3(=O)=O)c(F)c2C1 [ABBV-CLS-484, reference compound] was run?
Its EC50 is 79.7 nM.

For Nc1cccc2c1CN(C1CCC(=O)NC1=O)C2=O (stereo not drawn) [lenalidomide], which “effect of pretreatment” value [1] is on record?
The value was “had no effect”.

Which IC50 (PTP1B [2]) does the source give for COc1cc(CC(=O)N[C@@H](Cc2ccccc2)C(=O)N[C@@H](Cc2ccc(C(F)(F)P(=O)(O)O)cc2)C(=O)N[C@@H](CCCCNC(=O)c2ccc(C)c(Br)c2)C(=O)NCc2cccc(CC(=O)N[C@H](C(=O)N3C[C@@H](O)C[C@H]3C(=O)N[C@@H](C)c3ccc(-c4scnc4C)cc3)C(C)(C)C)c2)ccc1O [cis-47] ({Phenylacetyl(4-OH,3-OMe)}-F[F2Pmp]K(Benzoyl(3-Br,4-Me))[NHCH2(1,3-C6H4)CH2CO][Tle][cisHyp]-X1) here?
Its IC50 is 25.1 ± 1.6 nM.

And the IC50 (TC-PTP [3])?
The IC50 was 29.7 ± 2.1 nM.

What about the PTP1B degradation (PTP1B [4]) of the same molecule?
The PTP1B degradation was “failed to degrade”.

What about the TC-PTP degradation (TC-PTP [5]) of the same molecule?
The TC-PTP degradation was “failed to degrade”.

Which “effect of pretreatment” value [1] does the source give for Cc1ncsc1-c1ccc([C@H](C)NC(=O)[C@@H]2C[C@@H](O)CN2C(=O)[C@@H](N)C(C)(C)C)cc1 [(S,R,S)-AHPC-Me] here?
The value was “reduced”.

What does the source list for COc1cc(CC(=O)N[C@@H](Cc2ccccc2)C(=O)N[C@@H](Cc2ccc(C(F)(F)P(=O)(O)O)cc2)C(=O)N[C@@H](CCCCNC(=O)c2ccc(C)c(Br)c2)C(=O)NCCCCCC(=O)N[C@H](C(=O)N2C[C@H](O)C[C@H]2C(=O)NCc2ccc(-c3scnc3C)cc2)C(C)(C)C)ccc1O [Compound 8, ((4-((S)-3-(((S)-6-(3-bromo-4-methylbenzamido)-1-((6-(((S)-1-((2S,4R)-4-hydroxy-2-((4-(4-methylthiazol-5-yl)benzyl)carbamoyl)pyrrolidin-1-yl)-3,3-dimethyl-1-oxobutan-2-yl)amino)-6-oxohexyl)amino)-1-oxohexan-2-yl)amino)-2-((S)-2-(2-(4-hydroxy-3-methoxyphenyl)acetamido)-3-phenylpropanamido)-3-oxopropyl)phenyl)difluoromethyl)phosphonic Acid] ({Phenylacetyl(4-OH,3-OMe)}-F[F2Pmp]K(Benzoyl(3-Br,4-Me))[Ahx][Tle][Hyp]-{NHBn(4-(4-Me-thiazol-5-yl))})?
% Protein Degradation PTP1B (PTP1B [6]): 81%; percent TC-PTP degradation at 1 µM (TC-PTP [7]): 83%; % Protein Degradation PTP1B (PTP1B [8]): 61%; percent TC-PTP degradation at 0.2 µM (TC-PTP [9]): 58%; IC50 (PTP1B [2]): 16.7 ± 0.9 nM; IC50 (TC-PTP [3]): 12.8 ± 3.7 nM
